Measured values taken from paper PMC3806803 (PLoS ONE, 2013).

Key:
[1] = biological target: H7 HA (recombinant) (Influenza A virus (A/Netherlands/219/2003(H7N7)), UniProt Q6VMK1)
[2] = biological target: H3 HA (recombinant) (Influenza A virus (A/Brisbane/10/2007(H3N2)), UniProt A8W8K8)
[3] = biological target: H7 HA (recombinant) (Influenza A virus (A/Netherlands/219/2003(H7N7)), UniProt Q6VMK1); remark: listed apart in the source

CC(C)(C)c1cc(O)ccc1O [TBHQ]
WaterLOGSY and STD NMR; competition with antibody F49 [1]: TBHQ binds to H7 HA and, based on the competition NMR experiment
WaterLOGSY and STD NMR; competition with antibody F49 [2]: NMR experiment clearly indicates that TBHQ binds to H3 HA
midpoint pH of proteolysis susceptibility with TBHQ [3]: ~ 4.6 pH
